Source: US8846737B2, “Compound” (Sterix Limited, priority 2009, dated 2014)

Tests used:
rats = settings: cited from earlier work
E1-STS = target: T1, E1-STS (Homo sapiens, UniProt P08842); settings: intact MCF-7 cells, at 0.1 nM; cited from earlier work
T1 construct: host or cells: intact MCF-7 cells (endogenous enzyme)
T1 sequence (P08842 22-583): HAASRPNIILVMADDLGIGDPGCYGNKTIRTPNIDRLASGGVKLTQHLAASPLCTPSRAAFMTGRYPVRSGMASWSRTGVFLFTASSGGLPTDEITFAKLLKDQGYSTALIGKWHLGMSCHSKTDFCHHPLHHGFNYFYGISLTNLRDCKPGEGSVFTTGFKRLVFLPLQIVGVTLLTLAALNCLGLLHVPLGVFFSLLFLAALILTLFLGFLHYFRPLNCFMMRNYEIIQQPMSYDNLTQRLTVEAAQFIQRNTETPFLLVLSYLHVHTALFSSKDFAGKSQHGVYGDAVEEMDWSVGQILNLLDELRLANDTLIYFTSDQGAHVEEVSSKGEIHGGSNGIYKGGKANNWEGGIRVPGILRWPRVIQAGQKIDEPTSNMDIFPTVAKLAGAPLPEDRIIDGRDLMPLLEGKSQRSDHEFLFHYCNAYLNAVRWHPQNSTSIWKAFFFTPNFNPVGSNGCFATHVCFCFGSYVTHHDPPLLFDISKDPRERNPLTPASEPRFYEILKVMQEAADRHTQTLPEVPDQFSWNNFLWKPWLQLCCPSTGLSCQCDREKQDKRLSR

Aromatase = target: T2, Aromatase (Homo sapiens, UniProt P11511); assay: Aromatase activity in JEG3 cells (Protocol 6); assay type: cell-based; settings: intact JEG3 cells, [1β-3H]androstenedione, 30 min
T2 construct: host or cells: JEG3 choriocarcinoma cells, intact monolayers
T2 sequence (P11511 1-503): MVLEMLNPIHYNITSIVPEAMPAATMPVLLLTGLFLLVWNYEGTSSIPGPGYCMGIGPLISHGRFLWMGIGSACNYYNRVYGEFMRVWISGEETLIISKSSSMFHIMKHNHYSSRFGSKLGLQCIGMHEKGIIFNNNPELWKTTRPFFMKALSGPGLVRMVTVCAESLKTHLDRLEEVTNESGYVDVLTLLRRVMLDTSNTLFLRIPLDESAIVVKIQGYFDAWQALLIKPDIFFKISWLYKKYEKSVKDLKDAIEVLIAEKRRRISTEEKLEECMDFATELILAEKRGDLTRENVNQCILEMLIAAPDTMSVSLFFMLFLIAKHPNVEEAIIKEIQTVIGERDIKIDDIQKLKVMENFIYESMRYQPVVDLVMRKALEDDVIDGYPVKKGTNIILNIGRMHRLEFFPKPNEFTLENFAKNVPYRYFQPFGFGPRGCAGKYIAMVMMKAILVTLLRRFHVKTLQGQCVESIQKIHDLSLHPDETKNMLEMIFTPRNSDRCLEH
Description: Assay for Determining Aromatase Activity Using JEG3 Cells
Aromatase activity is measured in JEG3 choriocarcinoma cells, obtained from the ATCC. […] During the aromatase reaction, ^3H2O is liberated which can be quantified using a liquid scintillation spectrometer. […] The number of cell nuclei per flask is determined using a Coulter Counter after treating the cell monolayers with Zaponin.
Aromatase inhibition was measured in accordance with Protocol 6.

Steroid sulphatase (STS) = target: T3, Steroid sulphatase (STS) (Homo sapiens, UniProt P08842); assay: Inhibition of steroid sulphatase activity in JEG3 cells (Protocol 1); assay type: cell-based; settings: intact JEG3 cells, [6,7-3H]oestrone-3-sulphate, 3-4 hours
T3 construct: host or cells: JEG3 choriocarcinoma cells, intact monolayers
T3 sequence (P08842 22-583): T1 sequence (P08842 22-583)
Description: Assay for Determining STS Activity Using Cancer Cells
Inhibition of Steroid Sulphatase Activity in JEG3 Cells
Steroid sulphatase activity is measured in vitro using intact JEG3 choriocarcinoma cells.
Cells are maintained in Minimal Essential Medium (MEM) containing 20 mM HEPES, 5% foetal bovine serum, 2 mM glutamine, non-essential amino acids and 0.075% sodium bicarbonate. Up to 30 replicate 25 cm^2 tissue culture flasks are seeded with approximately 1×10^5 cells/flask using the above medium Cells are grown to 80% confluency and the medium is changed every third day.
Intact monolayers of JEG3 cells in triplicate 25 cm^2 tissue culture flasks are washed with Earle's Balanced Salt Solution (EBSS) and incubated for 3-4 hours at 37° C. with 5 pmol (7×10^5 dpm) [6, 7-3H]oestrone-3-sulphate (specific activity 60 Ci/mmol) in serum-free MEM (2.5 ml) together with oestrone-3-sulphamate (11 concentrations: 0; 1fM; 0.01 pM; 0.1 pM, 1 pM; 0.01 nM; 0.1 nM; 0.01 mM; 0.1 mM; 1 mM). After incubation each flask is cooled and the medium (1 ml) is pipetted into separate tubes containing [14C]oestrone (7×10^3 dpm) (specific activity 97 Ci/mmol). The mixture is shaken thoroughly for 30 seconds with toluene (5 ml) Experiments have shown that >90% [14C]oestrone and <0 1% [3H]oestrone-3-sulphate is removed from the aqueous phase by this treatment A portion (2 ml) of the organic phase is removed, evaporated and the 3H and 14C content of the residue determined by scintillation spectrometry The mass of oestrone-3-sulphate hydrolysed was calculated from the 3H counts obtained (corrected for the volumes of the medium and organic phase used, and for recovery of [14C] oestrone added) and the specific activity of the substrate Each batch of experiments includes incubations of microsomes prepared from a sulphatase-positive human placenta (positive control) and flasks without cells (to assess apparent non-enzymatic hydrolysis of the substrate). The number of cell nuclei per flask is determined using a Coulter Counter after treating the cell monolayers with Zaponin One flask in each batch is used to assess cell membrane status and viability using the Trypan Blue exclusion method (Phillips, H J. (1973) In: Tissue culture and applications, [eds: Kruse, D. F. & Patterson, M. K]; pp 406-408; Academic Press, New York)
Results for steroid sulphatase activity are expressed as the mean±1S.D. of the total product (oestrone+oestradiol) formed during the incubation period (3-4 hours) calculated for […] and, for values showing statistical significance, as a percentage reduction (inhibition) over incubations containing no oestrone-3-sulphamate. Unpaired Student's t-test was used to test the statistical significance of results
Sterioid sulphatase inhibition was measured in accordance with Protocol 1

steroid sulphatase = target: T4, steroid sulphatase (Homo sapiens, UniProt P08842); settings: compared with EMATE; cited from earlier work
T4 sequence (P08842 22-583): T1 sequence (P08842 22-583)

Row | IC50 (Aromatase) [nM] | IC50 (Steroid sulphatase (STS)) [nM] | SMILES | further results
1 | – | – | CC12CCC3c4ccc(OS(N)(=O)=O)cc4CCC3C1CCC2=O (stereo not shown) [EMATE, oestrone-3-sulphamate] | oral uterotrophic activity relative to estradiol (rats; rats, oral): 100 times; inhibition of E1-STS activity (E1-STS): more than 99%
2 | 0.14 ± 0.01 | 17 ± 2 | N#Cc1ccc(N(Cc2ccc(OS(N)(=O)=O)cc2)n2cnnc2)cc1-c1ccccc1 [CAB06025, 4-(((6-Cyanobiphenyl-3-yl)(4H-1,2,4-triazol-4-yl)amino)methyl)phenyl sulfamate] | –
3 | 40.7 ± 4.5 | 292 ± 80 | COc1ccc(Cc2cc(N(Cc3ccc(OS(N)(=O)=O)cc3)n3cnnc3)ccc2C#N)cc1 [Compound 45] | –
4 | < 0.1 | 1150 ± 50 | N#Cc1ccc(N(CCC(=O)c2ccc(OS(N)(=O)=O)cc2)n2cnnc2)cc1-c1ccccc1 [Compound 29] | –
5 | 0.15 ± 0.03 | 2.3 ± 0.9 | N#Cc1ccc(N(Cc2ccc(OS(N)(=O)=O)c(F)c2)n2cnnc2)cc1-c1ccccc1 [CAB06044, 4-(((6-Cyanobiphenyl-3-yl)(4H-1,2,4-triazol-4-yl)amino)methyl)-2-fluorophenyl sulfamate] | –
6 | < 0.1 | 0.12 ± 0.02 | N#Cc1ccc(N(Cc2c(F)cc(OS(N)(=O)=O)cc2F)n2cnnc2)cc1-c1ccccc1 [PMW04153, 4-(((6-Cyanobiphenyl-3-yl)(4H-1,2,4-triazol-4-yl)amino)methyl)-3,5-difluorophenyl sulfamate] | –
7 | 0.015 ± 0.005 | 0.83 ± 0.15 | N#Cc1ccc(N(Cc2ccc(OS(N)(=O)=O)c(Cl)c2)n2cnnc2)cc1-c1ccccc1 [CAB06049, 2-Chloro-4-(((6-cyanobiphenyl-3-yl)(4H-1,2,4-triazol-4-yl)amino)methyl)phenyl sulfamate] | –
8 | 2.6 ± 0.2 | 3.9 ± 0.8 | N#Cc1ccc(N(Cc2ccc(OS(N)(=O)=O)c(Br)c2)n2cnnc2)cc1-c1ccsc1 [Compound 9] | –
9 | 0.47 ± 0.18 | 55 ± 6 | N#Cc1ccc(N(Cc2ccc(OS(N)(=O)=O)cc2)n2cnnc2)cc1-c1ccc(F)cc1 [CAB06078, 4-(((6-Cyano-4′-fluorobiphenyl-3-yl)(4H-1,2,4-triazol-4-yl)amino)methyl)phenyl sulfamate] | –
10 | 0.018 ± 0.01 | 0.13 ± 0.01 | N#Cc1ccc(N(Cc2ccc(OS(N)(=O)=O)c(Br)c2)n2cnnc2)cc1-c1ccccc1 [CAB06045, 2-Bromo-4-(((6-cyanobiphenyl-3-yl)(4H-1,2,4-triazol-4-yl)amino)methyl)phenyl sulfamate] | –
11 | – | – | COc1cc2c(cc1OS(N)(=O)=O)CC[C@@H]1[C@@H]2CC[C@]2(C)C(=O)CC[C@@H]12 [2-methoxyoestrone-3-O-sulphamate] | potency as steroid sulphatase inhibitor (steroid sulphatase): equipotent with EMATE; oestrogenicity (rats; rat, in vivo): devoid of oestrogenicity
